“Also recorded” adds a separate entry of the source.
Columns and labels:
[1] = test system: reconstructed human epidermis (RHE); assay: PGE2 release in reconstituted human epidermis under UV stimulation; format: cell-based; details: UVB (+UVA) irradiated RHE
Procedure: Ten-day-old reconstructed human epidermis (RHE) were placed in maintenance medium. The RHE were topically treated with or without moisturizing creams containing different concentration of Urolithin A active and incubated for 24 hours. The RHE were then rinsed in PBS and irradiated with UVB (+UVA)—850 mJ/cm^2 (+6 J/cm^2) using a SOL500 Sun Simulator equipped with an H2 filter (Dr. Hönle, AG). After irradiation, the treatments were renewed and the RHE were incubated for 24 hours. In parallel, non-irradiated conditions were performed and kept in the dark during the irradiation time. All experimental conditions were performed in n=3. PGE2 released in the culture supernatants was measured using a specific ELISA kit according to the supplier's instructions (Enzo Life Sciences, ref. ADI-900-001). Statistical analysis performed by One-Way Anova.

[2] = test system: Normal Adult Human Epidermal Keratinocytes (NHEK-Ad); assay: RNA sequencing gene expression in human primary keratinocytes; format: cell-based; details: for expression of autophagy/mitophagy and mitochondrial function genes / expression of MMP1: vs DMSO/vehicle
Procedure: (§1) Study was conducted on Normal Adult Human Dermal Fibroblasts (NHDF-Ad) from two pooled donors (Catalog #: CC-2511) and Normal Adult Human Epidermal Keratinocytes (NHEK-Ad) from two pooled donors (Catalog #: 00192627, Lonza). The primary skin cells were amplified in flask and seeded in 12-well cell culture plates, filled with 1 mL of culture medium and then incubated at 37° C. with 5% CO2 and saturated hygrometry. The basic culture medium of human dermal fibroblasts was composed of FBM™ medium (Fibroblast Growth Basal Medium) supplemented with insulin 0.1%, hFGF-B 0.1%, GA-1000 0.1% and FBS 2%. The basic culture medium of human keratinocytes was composed of KBM™ Gold medium (Keratinocytes Basal Medium) supplemented with Hydrocortisone, Transferrin, Epinephrine, Gentamycin, Amphotericin B, BPE, hEGF and Insulin. Primary cells were treated at confluency (approximatively 250000 cells per well) with 0.1% DMSO (control), 2.5 μM and 10 μM of Urolithin A for 24 h, and harvested for RNA sequencing and expression profiling using the NGS platform.

[3] = test system: Normal Adult Human Dermal Fibroblasts (NHDF-Ad); assay: RNA sequencing gene expression in human primary dermal fibroblasts; format: cell-based; details: for expression of MMP1: vs DMSO/vehicle
Procedure: as §1

[4] = test system: UVB induced erythema; assay: Clinical trial: UVB induced erythema, Chromameter a*; format: in vivo, human
Procedure: A sunburn of 1.25 minimal erythemal dose (MED) was evoked on one set of test areas and 1.6 MED on the other set of test areas by irradiation with a sun simulator. On 3 test areas of each set products was applied 24 hours before irradiation, on 3 other test areas of each set products was applied immediately after irradiation. An irradiated but untreated test area served as a control. The effect of the test products was assessed by visual evaluation of erythema and instrumental color measurements by Chromameter before and after irradiation. The study was reviewed by an independent institutional review board (IRB) for ethical approval.
The following efficacy assessment(s) will be performed: • Erythema (a*) by Chromameter (See FIG. 10) • Visual erythema evaluation (trained grader)
The following instrumental measurement(s) will be performed: • CHROMAMETER CR 400 (Minolta, Device D-Langenhagen, Germany): Skin color can objectively be quantified by reflectance measurements with a tri-stimulus Chromameter. The measuring principle is based on the reflection of a Xenon flash that diffusely lightens the skin on an area of 8 mm in diameter. The vertically reflected light from the skin is then detected by high-sensitive silica photodiodes that provide a color analysis of the detected light. The Chromameter defines the measured color in the L*a*b* color coordinate system. The L*-value defines the brightness. The color is defined by the parameters a* (red-green axis; negative a*-value green, positive a*-value red) and b* (blue-yellow axis, negative b*-value blue, positive b*-value yellow). The a* value correlates well with visual assessments of skin redness (erythema), a* is a measure for erythema. […]

[5] = test system: 3D reconstituted human epidermis (RHE); assay: Gene expression in 3D reconstituted human epidermis after daily cream application; format: cell-based; details: UA 1% moisturizing cream daily for 3 days, vs Vehicle
From the text: Finally, we employed a model of 3D reconstituted human epidermis (RHE) applied daily with the UA 1% moisturizing cream for 3 days.

Structure (SMILES): O=c1oc2cc(O)ccc2c2ccc(O)cc12 [Urolithin A]
- PGE2 secretion compared to irradiated skin treated with basic cream formulation without UA ([1]; all UA concentrations tested): significantly reduces PGE2 secretion
- PGE2 secretion compared to irradiated non-treated skin ([1]; cream with UA at 0.5%, 1% and 2%, supernatant ELISA): significantly reduces PGE2 secretion
- expression of genes encoding collagen degradation enzymes (MMPs, ADAMs) ([2]; 2.5 uM or 10 uM, 24 h, vs DMSO): reduces expression
- expression of genes encoding proinflammatory cytokines (IL1A, IL1B) ([2]; 2.5 uM or 10 uM, 24 h, vs DMSO): reduces expression
- expression of autophagy/mitophagy and mitochondrial function genes ([2]; 2.5 uM or 10 uM, 24 h): increases the expression
- expression of autophagy/mitophagy and mitochondrial function genes ([2]; 2.5 uM or 10 uM, 24 h, listed as UA): upregulated
- expression of mitophagy marker PINK1 ([2]; 2.5 uM or 10 uM, vs DMSO): increased
- expression of MMP1 ([2]; 24 h): decreases
- expression of MMP1 ([2]; 24 h, listed as UA): drastic downregulation
- expression of MMP3 ([2]; 24 h, vs vehicle): drastic downregulation
- collagen gene expression (COL1A1) ([3]; 2.5 μM or 10 μM, 24 hours): did not alter
- expression of MMP1 ([3]; 2.5 μM or 10 μM, 24 hours): decreases
- expression of MMP1 ([3]; 2.5 μM or 10 μM, 24 hours, listed as UA): suppressed the expression
- expression of mitophagy genes PARKIN and PINK1 and autophagy genes MAP1LC3 and ULK1 ([3]; 2.5 μM or 10 μM, 24 hours, vs vehicle): dose-dependent increase
- expression of mitophagy marker PINK1 ([3]; 2.5 uM or 10 uM, vs DMSO): increased
- skin redness, erythema (a*) by Chromameter vs untreated area ([4]; skin cream with 1% Urolithin A, 1.6 MED UVB, 24 hours after irradiation): reduction; also recorded: significantly less skin redness
- reduction of skin redness/erythema ([4]; skin cream with 1% Urolithin A, 1.6 MED UVB, vs untreated area): approximately 14.3%
- skin redness/erythema ([4]; skin cream with Urolithin A at 0.5%): did not show any significant effect
- MMP1 and MMP3 gene expression [5]: No change
- mitophagy and autophagy genes [5]: early activation

— patent US20230301890A1, “COMPOSITIONS COMPRISING UROLITHINS” (Amazentis SA, priority 2022, published 2023)
